We go through twelve molecules from publication PMC7481482, “Development of Anthraquinone Derivatives as Ectonucleoside Triphosphate Diphosphohydrolase (NTPDase) Inhibitors With Selectivity for NTPDase2 and NTPDase3” (Frontiers in Pharmacology, 2020).

As usually defined, the IC50 is the midpoint of a concentration-inhibition curve. For orientation: melting point means the temperature of the solid-liquid transition.

For one data set, the target named is T1, human NTPDase1 (Homo sapiens, UniProt P49961).
T1 construct: expressed in transfected cells; host or cells: COS-7 cells (membrane preparation)
T1 sequence (P49961 1-510): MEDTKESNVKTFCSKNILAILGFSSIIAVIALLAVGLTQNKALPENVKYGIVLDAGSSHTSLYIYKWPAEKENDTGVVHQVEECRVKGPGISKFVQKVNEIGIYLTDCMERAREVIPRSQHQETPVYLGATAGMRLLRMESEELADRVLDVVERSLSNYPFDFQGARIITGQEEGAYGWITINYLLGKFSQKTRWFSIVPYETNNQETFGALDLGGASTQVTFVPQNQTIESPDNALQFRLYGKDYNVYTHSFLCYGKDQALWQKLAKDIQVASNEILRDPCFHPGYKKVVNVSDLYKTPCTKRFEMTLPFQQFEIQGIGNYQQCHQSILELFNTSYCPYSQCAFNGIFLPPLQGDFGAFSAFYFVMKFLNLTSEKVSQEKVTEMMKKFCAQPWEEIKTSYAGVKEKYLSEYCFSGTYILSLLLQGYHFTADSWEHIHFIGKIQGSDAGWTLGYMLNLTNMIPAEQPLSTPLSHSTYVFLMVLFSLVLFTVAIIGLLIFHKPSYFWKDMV
Briefly: Malachite green assay, human NTPDase1. Format: biochemical. The following applies: 2 μM compound; 50 µM ATP; COS-7 membrane preparation; read-out: % inhibition at 2 μM concentration, NTPDase1. The method in brief: (§1)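 COS-7 membranes expressing each NTPDase were preincubated with compound for 5 min at 37 °C, pH 7.4 HEPES buffer with 2 mM CaCl2/1 mM MgCl2. ATP was 50 µM for NTPDase1 and 100 µM for -2, -3, -8; reaction ran 15 min at 37 °C. Released phosphate read by malachite green at 600 nm; screen at 2 µM, IC50 over 0.03–30 µM in 2% DMSO.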

Data set [1] addresses T2, human NTPDase2 (Homo sapiens, UniProt Q9Y5L3).
T2 construct: expressed in transfected cells; host or cells: COS-7 cells (membrane preparation)
T2 sequence (Q9Y5L3 1-495): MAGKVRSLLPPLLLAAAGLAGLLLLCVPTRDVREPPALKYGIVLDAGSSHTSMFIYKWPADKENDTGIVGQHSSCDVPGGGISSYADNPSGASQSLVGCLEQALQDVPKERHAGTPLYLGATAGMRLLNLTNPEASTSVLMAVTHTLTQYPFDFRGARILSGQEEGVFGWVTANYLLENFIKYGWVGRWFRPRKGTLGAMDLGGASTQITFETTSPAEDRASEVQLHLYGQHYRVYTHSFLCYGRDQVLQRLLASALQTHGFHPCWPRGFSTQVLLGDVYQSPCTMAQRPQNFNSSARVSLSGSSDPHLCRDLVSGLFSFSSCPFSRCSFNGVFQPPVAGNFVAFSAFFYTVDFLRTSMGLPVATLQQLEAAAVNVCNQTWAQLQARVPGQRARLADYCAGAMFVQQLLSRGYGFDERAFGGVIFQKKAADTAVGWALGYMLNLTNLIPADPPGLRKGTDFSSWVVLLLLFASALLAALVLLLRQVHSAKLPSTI
Kind of data set: Malachite green assay, human NTPDase2. Type of data set: biochemical. The following applies: for inhibition at 2 µM: 2 μM compound, read-out: % inhibition at 2 μM concentration, NTPDase2; for inhibition at 2 µM / IC50: 100 µM ATP, COS-7 membrane preparation; for IC50: read-out: IC50 ± SEM, NTPDase2. The method in brief:
as §1

In a further data set the target is T3, human NTPDase3 (Homo sapiens, UniProt O75355).
T3 construct: expressed in transfected cells; host or cells: COS-7 cells (membrane preparation)
T3 sequence (O75355 1-529): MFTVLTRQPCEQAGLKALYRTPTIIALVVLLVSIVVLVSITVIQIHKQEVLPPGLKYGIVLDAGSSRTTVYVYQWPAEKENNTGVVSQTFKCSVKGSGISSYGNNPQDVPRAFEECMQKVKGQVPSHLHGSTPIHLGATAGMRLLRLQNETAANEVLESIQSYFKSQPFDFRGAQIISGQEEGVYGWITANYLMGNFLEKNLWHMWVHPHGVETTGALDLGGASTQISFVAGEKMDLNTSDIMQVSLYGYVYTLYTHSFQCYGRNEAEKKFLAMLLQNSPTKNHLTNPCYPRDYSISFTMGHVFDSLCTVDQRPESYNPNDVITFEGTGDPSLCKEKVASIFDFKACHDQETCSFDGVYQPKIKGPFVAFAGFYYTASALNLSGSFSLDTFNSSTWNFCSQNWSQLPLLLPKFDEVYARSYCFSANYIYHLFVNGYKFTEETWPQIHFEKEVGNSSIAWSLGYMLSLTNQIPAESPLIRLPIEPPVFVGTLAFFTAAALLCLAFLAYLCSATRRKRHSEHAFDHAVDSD
Kind of data set: Malachite green assay, human NTPDase3. Type of data set: biochemical. The following applies: 2 μM compound; 100 µM ATP; COS-7 membrane preparation; read-out: % inhibition at 2 μM concentration, NTPDase3. Summed up: as §1

The target of data set [2] is T4, human NTPDase8 (Homo sapiens, UniProt Q5MY95).
T4 construct: expressed in transfected cells; host or cells: COS-7 cells (membrane preparation)
T4 sequence (Q5MY95 1-495): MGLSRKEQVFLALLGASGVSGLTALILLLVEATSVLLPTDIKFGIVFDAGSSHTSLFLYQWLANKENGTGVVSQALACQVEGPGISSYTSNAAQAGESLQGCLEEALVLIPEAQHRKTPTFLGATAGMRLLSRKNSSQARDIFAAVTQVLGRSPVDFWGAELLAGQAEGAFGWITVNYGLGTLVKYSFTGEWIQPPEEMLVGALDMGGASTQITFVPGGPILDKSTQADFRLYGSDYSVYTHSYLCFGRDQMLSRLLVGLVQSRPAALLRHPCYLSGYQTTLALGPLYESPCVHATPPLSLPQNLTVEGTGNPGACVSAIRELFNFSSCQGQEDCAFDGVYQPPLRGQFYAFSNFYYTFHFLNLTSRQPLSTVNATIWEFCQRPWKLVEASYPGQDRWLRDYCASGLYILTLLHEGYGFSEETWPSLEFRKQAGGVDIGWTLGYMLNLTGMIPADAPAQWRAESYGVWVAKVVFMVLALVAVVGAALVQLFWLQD
Kind of data set: Malachite green assay, human NTPDase8. Type of data set: biochemical. The following applies: 2 μM compound; 100 µM ATP; COS-7 membrane preparation; read-out: % inhibition at 2 μM concentration, NTPDase8. The method in brief: as §1

A further data set relates to rat NTPDase1. The following applies: cited from earlier work; for IC50: rat enzyme, ref Baqi et al., 2009b.
For another data set, the system named is rat NTPDase2. The following applies: cited from earlier work; for IC50: rat enzyme, ref Baqi et al., 2009b.
For another data set, the system named is rat NTPDase3. The following applies: cited from earlier work; for IC50: rat enzyme, ref Baqi et al., 2009b.
The subject of a further data set is rat CD73. Further details: method as in Baqi et al., 2010. The following applies: 1 mM concentration; ref Baqi et al., 2010; cited from earlier work.
Data set [3] addresses T2, human NTPDase2. The following applies: ref Lévesque et al., 2007; cited from earlier work.
Data set [4] addresses T4, human NTPDase8. Also noted: method as in Lévesque et al., 2007. The following applies: ref Lévesque et al., 2007; cited from earlier work.

Take `Cc1cccc(Nc2cc(S(=O)(=O)O)c(N)c3c2C(=O)c2ccccc2C3=O)c1` [Compound 6, reference compound]: the inhibition at 2 µM at human NTPDase1 was -4%; on human NTPDase2 [1], 22%; on human NTPDase3 it was 1%; at human NTPDase8 [2] it was -21%. The IC50 in the data set on rat NTPDase1 was 51.5 µM; in the data set on rat NTPDase2 it was 12.8 µM; with rat NTPDase3 it was 19.1 µM.

For `Nc1c(S(=O)(=O)O)cc(Nc2ccc3ccccc3c2)c2c1C(=O)c1ccccc1C2=O` [Compound 18], the inhibition at 2 µM at human NTPDase1 was -8%; at human NTPDase2 [1] it was 34%; on human NTPDase3 it was -9%; at human NTPDase8 [2], 3%. In addition, the figures for the IC50 with rat NTPDase1, in the data set on rat NTPDase2 and in the data set on rat NTPDase3 were 0.328 µM, 19.1 µM and 2.22 µM, respectively.

The molecule `Nc1c(S(=O)(=O)[O-])cc(Nc2cccc(F)c2C(=O)O)c2c1C(=O)c1ccccc1C2=O.[Na+]` [Compound 35, Sodium 1-amino-4-(2-carboxy-3-fluorophenylamino)-9,10-dioxo-9,10-dihydroanthracene-2-sulfonate] registered a melting point greater than 300 °C. The inhibition at 2 µM on human NTPDase1 is -21%. The inhibition at 2 µM on human NTPDase2 [1] is -3%. Also, the inhibition at 2 µM on human NTPDase3 was 32%. Also, the inhibition at 2 µM at human NTPDase8 [2] was -10%.

For `Nc1c(S(=O)(=O)O)cc(Nc2cc3ccccc3c3ccccc23)c2c1C(=O)c1ccccc1C2=O` [Compound 20, 1-amino-4-(9-phenanthrylamino)-9,10-dioxo-9,10-dihydroanthracene-2-sulfonate], the inhibition at 2 µM at human NTPDase1 was -7%; at human NTPDase3 it was -5%; at human NTPDase8 [2], 6%. Also, the IC50 on human NTPDase2 [1] turned out to be 0.539 ± 0.29 µM. Besides, at human NTPDase2 [1] (Hanes-Woolf plot, 25-200 µM ATP, inhibitor 0, 0.25, 0.5, 1 µM), the “inhibition type, NTPDase2” value is recorded as “non-competitive”. For the same molecule, the “% inhibition of CD73 at 1 mM concentration” value in the data set with rat CD73 is 58%.

The molecule `Nc1c(S(=O)(=O)[O-])cc(Nc2cccc(Sc3ccccc3)c2)c2c1C(=O)c1ccccc1C2=O.[Na+]` [Compound 41, Sodium 1-amino-4-(3-(phenylsulfanyl)phenylamino)-9,10-dioxo-9,10-dihydroanthracene-2-sulfonate] displayed a melting point greater than 300 °C. Also, the inhibition at 2 µM at human NTPDase1 came to 1%. Also, the IC50 at human NTPDase2 [1] is 0.984 ± 0.327 µM. In addition, the inhibition at 2 µM at human NTPDase3 was 10%. Moreover, at human NTPDase8 [2], the inhibition at 2 µM is 6%.

Take `O=C1c2ccccc2C(=O)c2c(Nc3cccc(F)c3)cc(S(=O)(=O)O)cc21` [Compound 57, 4-(3-Fluorophenylamino)-9,10-dioxo-9,10-dihydroanthracene-2-sulfonic acid]: the melting point is greater than 300 °C. Moreover, the inhibition at 2 µM at human NTPDase1 was 14%. In addition, the inhibition at 2 µM at human NTPDase2 [1] was -6%. For the same molecule, the inhibition at 2 µM at human NTPDase3 is 9%. Also, the inhibition at 2 µM at human NTPDase8 [2] is -1%.

Turning to `Nc1c(S(=O)(=O)[O-])cc(Nc2ccc(CO)cc2)c2c1C(=O)c1ccccc1C2=O.[Na+]` [Compound 29, Sodium 1-amino-4-(4-(hydroxymethyl)phenylamino)-9,10-dioxo-9,10-dihydroanthracene-2-sulfonate], the melting point was greater than 300 °C. Also, the inhibition at 2 µM at human NTPDase1 was -4%. Further, at human NTPDase2 [1], the inhibition at 2 µM is 5%. Besides, the inhibition at 2 µM on human NTPDase3 was -3%. At human NTPDase8 [2], the inhibition at 2 µM was -4%.

The molecule `Nc1c(S(=O)(=O)[O-])cc(Nc2cccc(Cl)c2Cl)c2c1C(=O)c1ccccc1C2=O.[Na+]` [Compound 34, Sodium 1-amino-4-(2,3-dichlorophenylamino)-9,10-dioxo-9,10-dihydroanthracene-2-sulfonate] yielded a melting point greater than 300 °C. On human NTPDase1, the inhibition at 2 µM turned out to be 1%. In addition, the inhibition at 2 µM at human NTPDase2 [1] amounted to 16%. The inhibition at 2 µM at human NTPDase3 is -2%. Besides, the inhibition at 2 µM at human NTPDase8 [2] worked out at 7%.

For the molecule “[TiW11CoO40]^8- [Compound 9, reference compound]”, in the data set with rat NTPDase1 (ref Müller et al., 2006), the “inhibition of rat NTPDase1 (concentration range in words)” value is on record as “submicromolar concentration range”. Moreover, the “inhibition of rat NTPDase2 (concentration range in words)” value in the data set on rat NTPDase2 (ref Müller et al., 2006) is recorded as “submicromolar concentration range”. For the same molecule, in the data set on rat NTPDase3 (ref Müller et al., 2006), the “inhibition of rat NTPDase3 (concentration range in words)” value is reported as “submicromolar concentration range”.

Consider `CCN(CC)c1ncnc2c1ncn2[C@@H]1O[C@H](COP(=O)(O)OP(=O)(O)C(Br)(Br)P(=O)(O)O)[C@@H](O)[C@H]1O` [ARL67156], for which the “inhibition of human NTPDase2 (in words)” value at human NTPDase2 [3] is reported as “does not inhibit”. At human NTPDase8 [4], the “inhibition of human NTPDase8 (in words)” value is “does not inhibit”.

In turn, `Nc1c(S(=O)(=O)[O-])cc(Nc2ccccc2CO)c2c1C(=O)c1ccccc1C2=O.[Na+]` [Compound 27, Sodium 1-amino-4-(2-(hydroxymethyl)phenylamino)-9,10-dioxo-9,10-dihydroanthracene-2-sulfonate] gave a melting point greater than 300 °C. In addition, at human NTPDase1, the inhibition at 2 µM was -1%. The inhibition at 2 µM on human NTPDase2 [1] was determined as 12%. The inhibition at 2 µM on human NTPDase3 was 11%. On human NTPDase8 [2], the inhibition at 2 µM is 4%.

Consider `Nc1c(S(=O)(=O)[O-])cc(Nc2cccc(CO)c2)c2c1C(=O)c1ccccc1C2=O.[Na+]` [Compound 28, Sodium 1-amino-4-(3-(hydroxymethyl)phenylamino)-9,10-dioxo-9,10-dihydroanthracene-2-sulfonate], for which the melting point was greater than 300 °C. On human NTPDase1, the inhibition at 2 µM was -2%. Further, the inhibition at 2 µM at human NTPDase2 [1] came out at 7%. Also, the inhibition at 2 µM on human NTPDase3 was -9%. Further, the inhibition at 2 µM at human NTPDase8 [2] was 1%.
